{"source": "PubChem BioAssay (NCI)", "test_in_all_cases": "DTP human tumour cell line panel, 48 h", "key": {"SK-OV-3 ovarian": {"tested_on": "SK-OV-3 ovarian"}, "MOLT-4 leukemia": {"tested_on": "MOLT-4 leukemia"}, "SK-MEL-28 melanoma": {"tested_on": "SK-MEL-28 melanoma"}, "MALME-3M melanoma": {"tested_on": "MALME-3M melanoma"}, "UACC-257 melanoma": {"tested_on": "UACC-257 melanoma"}, "K-562 leukemia": {"tested_on": "K-562 leukemia"}, "UO-31 renal": {"tested_on": "UO-31 renal"}, "SNB-75 CNS": {"tested_on": "SNB-75 CNS"}, "COLO 205 colon": {"tested_on": "COLO 205 colon"}, "KM12 colon": {"tested_on": "KM12 colon"}}, "note": "“And” between values parts separate entries of the source, which are not always exact repeats. Identical values can stand only once.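 Test compounds were applied to cells in 96-well plates for 48 hours at 5 doses. The concentration for full growth arrest is given as TGI.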", "data": [{"compound": "O=C1C(=O)N(c2cccc(C(F)(F)F)c2)C(=S)N1c1ccccc1", "values": [{"measurement": "TGI", "setting": "SK-OV-3 ovarian", "value": 70.4, "unit": "µM"}, {"measurement": "TGI", "setting": "MOLT-4 leukemia", "value": "> 100", "unit": "µM"}, {"measurement": "TGI", "setting": "SK-MEL-28 melanoma", "value": 88.8, "unit": "µM"}, {"measurement": "TGI", "setting": "MALME-3M melanoma", "value": "> 100", "unit": "µM"}, {"measurement": "TGI", "setting": "UACC-257 melanoma", "value": 71.8, "unit": "µM"}, {"measurement": "TGI", "setting": "K-562 leukemia", "value": "> 100", "unit": "µM"}, {"measurement": "TGI", "setting": "UO-31 renal", "value": 86.5, "unit": "µM"}, {"measurement": "TGI", "setting": "SNB-75 CNS", "value": "> 100", "unit": "µM"}, {"measurement": "TGI", "setting": "COLO 205 colon", "value": 30.5, "unit": "µM"}, {"measurement": "TGI", "setting": "KM12 colon", "value": "> 100", "unit": "µM"}]}, {"compound": "CC1SCc2nc3ccccc3n21", "note": "(centres undefined)", "values": [{"measurement": "TGI", "setting": "SK-OV-3 ovarian", "value": "> 100", "unit": "µM"}, {"measurement": "TGI", "setting": "MOLT-4 leukemia", "value": "> 100", "unit": "µM"}, {"measurement": "TGI", "setting": "SK-MEL-28 melanoma", "value": "> 100", "unit": "µM"}, {"measurement": "TGI", "setting": "MALME-3M melanoma", "value": "> 100", "unit": "µM"}, {"measurement": "TGI", "setting": "UACC-257 melanoma", "value": "> 100", "unit": "µM"}, {"measurement": "TGI", "setting": "K-562 leukemia", "value": "> 100", "unit": "µM"}, {"measurement": "TGI", "setting": "UO-31 renal", "value": "> 100", "unit": "µM"}, {"measurement": "TGI", "setting": "SNB-75 CNS", "value": 83.3, "unit": "µM"}, {"measurement": "TGI", "setting": "COLO 205 colon", "value": "> 100", "unit": "µM"}, {"measurement": "TGI", "setting": "KM12 colon", "value": "> 100", "unit": "µM"}]}, {"compound": "CCOc1ccc(N/C(=C(/C(Cl)=C(/Cl)N2CCCCC2)[N+](=O)[O-])n2nnc3ccccc32)cc1", "values": [{"measurement": "TGI", "setting": "SK-OV-3 ovarian", "value": 82, "unit": "µM"}, {"measurement": "TGI", "setting": "MOLT-4 leukemia", "value": "> 100", "unit": "µM"}, {"measurement": "TGI", "setting": "SK-MEL-28 melanoma", "value": 34.2, "unit": "µM"}, {"measurement": "TGI", "setting": "MALME-3M melanoma", "value": 39.6, "unit": "µM"}, {"measurement": "TGI", "setting": "UACC-257 melanoma", "value": 38.6, "unit": "µM"}, {"measurement": "TGI", "setting": "K-562 leukemia", "value": "> 100", "unit": "µM"}, {"measurement": "TGI", "setting": "UO-31 renal", "value": 4.17, "unit": "µM"}, {"measurement": "TGI", "setting": "SNB-75 CNS", "value": 50.6, "unit": "µM"}, {"measurement": "TGI", "setting": "COLO 205 colon", "value": 42.5, "unit": "µM"}, {"measurement": "TGI", "setting": "KM12 colon", "value": 31.6, "unit": "µM"}]}, {"compound": "CC1=C(c2ccccc2)NC(=S)C(C)C(c2ccccc2)=N1", "note": "(centres undefined)", "values": [{"measurement": "TGI", "setting": "SK-OV-3 ovarian", "value": "> 100", "unit": "µM"}, {"measurement": "TGI", "setting": "MOLT-4 leukemia", "value": 54.1, "unit": "µM"}, {"measurement": "TGI", "setting": "SK-MEL-28 melanoma", "value": "> 100", "unit": "µM"}, {"measurement": "TGI", "setting": "MALME-3M melanoma", "value": "> 100", "unit": "µM"}, {"measurement": "TGI", "setting": "UACC-257 melanoma", "value": "> 100", "unit": "µM"}, {"measurement": "TGI", "setting": "K-562 leukemia", "value": 28.6, "unit": "µM"}, {"measurement": "TGI", "setting": "UO-31 renal", "value": "> 100", "unit": "µM"}, {"measurement": "TGI", "setting": "SNB-75 CNS", "value": "> 100", "unit": "µM"}, {"measurement": "TGI", "setting": "COLO 205 colon", "value": "> 100", "unit": "µM"}, {"measurement": "TGI", "setting": "KM12 colon", "value": "> 100", "unit": "µM"}]}, {"compound": "CN(C)CCn1c(=O)c2ccc(NCCN3CCNCC3)c3c(=O)c4ccccc4n(c1=O)c23", "values": [{"measurement": "TGI", "setting": "SK-OV-3 ovarian", "value": 24.6, "unit": "µM"}, {"measurement": "TGI", "setting": "MOLT-4 leukemia", "value": 0.147, "unit": "µM"}, {"measurement": "TGI", "setting": "SK-MEL-28 melanoma", "value": 25.5, "unit": "µM"}, {"measurement": "TGI", "setting": "MALME-3M melanoma", "value": 17, "unit": "µM"}, {"measurement": "TGI", "setting": "UACC-257 melanoma", "value": 17.3, "unit": "µM"}, {"measurement": "TGI", "setting": "K-562 leukemia", "value": 6.85, "unit": "µM"}, {"measurement": "TGI", "setting": "UO-31 renal", "value": 17.9, "unit": "µM"}, {"measurement": "TGI", "setting": "SNB-75 CNS", "value": 10.1, "unit": "µM"}, {"measurement": "TGI", "setting": "COLO 205 colon", "value": 13, "unit": "µM"}, {"measurement": "TGI", "setting": "KM12 colon", "value": 16.4, "unit": "µM"}]}, {"compound": "C=C(CCC/C(C)=C/C=C/[C@@H](C)CCCc1ccoc1)C[C@@H]1OC(=O)[C@H](C)[C@@H]1O", "values": [{"measurement": "TGI", "setting": "SK-OV-3 ovarian", "value": 15.8, "unit": "µM"}, {"measurement": "TGI", "setting": "MOLT-4 leukemia", "value": "> 50", "unit": "µM"}, {"measurement": "TGI", "setting": "SK-MEL-28 melanoma", "value": 19.1, "unit": "µM"}, {"measurement": "TGI", "setting": "MALME-3M melanoma", "value": 18.1, "unit": "µM"}, {"measurement": "TGI", "setting": "UACC-257 melanoma", "value": 15.1, "unit": "µM"}, {"measurement": "TGI", "setting": "K-562 leukemia", "value": "> 50", "unit": "µM"}, {"measurement": "TGI", "setting": "UO-31 renal", "value": 15.9, "unit": "µM"}, {"measurement": "TGI", "setting": "SNB-75 CNS", "value": 19, "unit": "µM"}, {"measurement": "TGI", "setting": "COLO 205 colon", "value": 20.5, "unit": "µM"}, {"measurement": "TGI", "setting": "KM12 colon", "value": 16.1, "unit": "µM"}]}, {"compound": "CN(C)C(c1ccccc1)C1COC2Cc3ccccc3C1O2", "note": "(centres undefined)", "values": [{"measurement": "TGI", "setting": "SK-OV-3 ovarian", "value": "> 100", "unit": "µM"}, {"measurement": "TGI", "setting": "MOLT-4 leukemia", "value": "> 100", "unit": "µM"}, {"measurement": "TGI", "setting": "SK-MEL-28 melanoma", "value": "> 100", "unit": "µM"}, {"measurement": "TGI", "setting": "MALME-3M melanoma", "value": "> 100", "unit": "µM"}, {"measurement": "TGI", "setting": "UACC-257 melanoma", "value": "> 100", "unit": "µM"}, {"measurement": "TGI", "setting": "K-562 leukemia", "value": "> 100", "unit": "µM"}, {"measurement": "TGI", "setting": "UO-31 renal", "value": "> 100", "unit": "µM"}, {"measurement": "TGI", "setting": "SNB-75 CNS", "value": "89 µM and 89.4 µM"}, {"measurement": "TGI", "setting": "COLO 205 colon", "value": "> 100", "unit": "µM"}, {"measurement": "TGI", "setting": "KM12 colon", "value": "> 100", "unit": "µM"}]}, {"compound": "CC(C)N=C(N)NC#N", "values": [{"measurement": "TGI", "setting": "SK-OV-3 ovarian", "value": "> 100", "unit": "µM"}, {"measurement": "TGI", "setting": "MOLT-4 leukemia", "value": "> 100", "unit": "µM"}, {"measurement": "TGI", "setting": "MALME-3M melanoma", "value": "> 100", "unit": "µM"}, {"measurement": "TGI", "setting": "UACC-257 melanoma", "value": "> 100", "unit": "µM"}, {"measurement": "TGI", "setting": "K-562 leukemia", "value": "> 100", "unit": "µM"}, {"measurement": "TGI", "setting": "UO-31 renal", "value": "> 100", "unit": "µM"}, {"measurement": "TGI", "setting": "SNB-75 CNS", "value": "> 100", "unit": "µM"}, {"measurement": "TGI", "setting": "COLO 205 colon", "value": "> 100", "unit": "µM"}, {"measurement": "TGI", "setting": "KM12 colon", "value": "> 100", "unit": "µM"}]}, {"compound": "O=C(c1ccccc1)c1ccc2[nH]c(-c3c(Cl)c(Cl)c(Cl)c(Cl)c3C(=O)N/N=C/c3cccc(Oc4ccccc4)c3)nc2c1", "values": [{"measurement": "TGI", "setting": "SK-OV-3 ovarian", "value": "> 100", "unit": "µM"}, {"measurement": "TGI", "setting": "MOLT-4 leukemia", "value": "> 100", "unit": "µM"}, {"measurement": "TGI", "setting": "SK-MEL-28 melanoma", "value": "> 100", "unit": "µM"}, {"measurement": "TGI", "setting": "MALME-3M melanoma", "value": "> 100", "unit": "µM"}, {"measurement": "TGI", "setting": "UACC-257 melanoma", "value": "> 100", "unit": "µM"}, {"measurement": "TGI", "setting": "K-562 leukemia", "value": "> 100", "unit": "µM"}, {"measurement": "TGI", "setting": "UO-31 renal", "value": "> 100", "unit": "µM"}, {"measurement": "TGI", "setting": "SNB-75 CNS", "value": "> 100", "unit": "µM"}, {"measurement": "TGI", "setting": "COLO 205 colon", "value": "> 100", "unit": "µM"}, {"measurement": "TGI", "setting": "KM12 colon", "value": "> 100", "unit": "µM"}]}, {"compound": "COc1cc(/C=N/n2c(-c3ccccc3)nn(C(C)=O)c2=O)cc(OC)c1OC", "values": [{"measurement": "TGI", "setting": "SK-OV-3 ovarian", "value": "> 39.9", "unit": "µM"}, {"measurement": "TGI", "setting": "MOLT-4 leukemia", "value": "> 52.7", "unit": "µM"}, {"measurement": "TGI", "setting": "SK-MEL-28 melanoma", "value": "> 80.6", "unit": "µM"}, {"measurement": "TGI", "setting": "MALME-3M melanoma", "value": "> 46.6", "unit": "µM"}, {"measurement": "TGI", "setting": "UACC-257 melanoma", "value": "> 39.3", "unit": "µM"}, {"measurement": "TGI", "setting": "K-562 leukemia", "value": "> 100", "unit": "µM"}, {"measurement": "TGI", "setting": "UO-31 renal", "value": 54.4, "unit": "µM"}, {"measurement": "TGI", "setting": "SNB-75 CNS", "value": 21.1, "unit": "µM"}, {"measurement": "TGI", "setting": "COLO 205 colon", "value": 4.55, "unit": "µM"}, {"measurement": "TGI", "setting": "KM12 colon", "value": "> 59.5", "unit": "µM"}]}]}
